Measurements taken from PubChem BioAssay AID1259407 (Chemical Carcinogenesis Research Information System (CCRIS), 2018).
Calls of active or inactive are those of the source. How the calls were made is not given here.

System: CCRIS mutagenicity, Ames/micronucleus/aberration tests
Experiment: CCRIS mutagenicity studies
[1] = Test System: AMES SALMONELLA TYPHIMURIUM, Strain/Indicator: TA100, Metabolic Activation: NONE, Method: STANDARD PLATE

With `C=C(C)CCl` the mutagenic call (End Point: IN VITRO CHROMOSOMAL ABERRATIONS, Test System: CHL CELLS, Metabolic Activation: RAT, LIVER, S-9, SODIUM PHENOBARBITAL AND 5,6-BENZOFLAVONE) was “active; positive (structural changes)”, the mutagenic call (Test System: AMES SALMONELLA TYPHIMURIUM, Strain/Indicator: TA97, Metabolic Activation: HAMSTER, LIVER, S-9, AROCLOR 1254 (10 OR 30%), Method: PREINCUBATION) was “inactive; negative” and the mutagenic call (Test System: AMES SALMONELLA TYPHIMURIUM, Strain/Indicator: TA97, Metabolic Activation: NONE, Method: PREINCUBATION) was “inactive; negative”. The mutagenic call (Test System: AMES SALMONELLA TYPHIMURIUM, Strain/Indicator: TA97, Metabolic Activation: RAT, LIVER, S-9, AROCLOR 1254 (10 OR 30%), Method: PREINCUBATION) was “inactive; negative”, the mutagenic call (Test System: AMES SALMONELLA TYPHIMURIUM, Strain/Indicator: TA98, Metabolic Activation: HAMSTER, LIVER, S-9, AROCLOR 1254 (10 OR 30%), Method: PREINCUBATION) was “inactive; negative” and the mutagenic call (Test System: AMES SALMONELLA TYPHIMURIUM, Strain/Indicator: TA98, Metabolic Activation: NONE, Method: PREINCUBATION) was “inactive; negative”. For the same compound, the mutagenic call (Test System: AMES SALMONELLA TYPHIMURIUM, Strain/Indicator: TA98, Metabolic Activation: RAT LIVER S-9, PHENOBARBITAL AND BETA-NAPHTHOFLAVONE, Method: PREINCUBATION) was “inactive; negative”, the mutagenic call (Test System: AMES SALMONELLA TYPHIMURIUM, Strain/Indicator: TA98, Metabolic Activation: RAT, LIVER, S-9, AROCLOR 1254 (10 OR 30%), Method: PREINCUBATION) was “inactive; negative” and the mutagenic call (Test System: AMES SALMONELLA TYPHIMURIUM, Strain/Indicator: TA100, Metabolic Activation: HAMSTER, LIVER, S-9, AROCLOR 1254 (10 OR 30%), Method: PREINCUBATION) was “inactive; negative”. The mutagenic call (Test System: AMES SALMONELLA TYPHIMURIUM, Strain/Indicator: TA100, Metabolic Activation: NONE, Method: LIQUID SUSPENSION) was “active; positive”, the mutagenic call (Test System: AMES SALMONELLA TYPHIMURIUM, Strain/Indicator: TA100, Metabolic Activation: NONE, Method: PREINCUBATION) was “inactive; negative” and the mutagenic call (Test System: AMES SALMONELLA TYPHIMURIUM, Strain/Indicator: TA100, Metabolic Activation: RAT LIVER S-9, PHENOBARBITAL AND BETA-NAPHTHOFLAVONE, Method: PREINCUBATION) was “inactive; negative”. For the same compound, the mutagenic call (Test System: AMES SALMONELLA TYPHIMURIUM, Strain/Indicator: TA100, Metabolic Activation: RAT, LIVER, S-9, AROCLOR 1254 (10 OR 30%), Method: PREINCUBATION) was “inactive; negative”, the mutagenic call (Test System: AMES SALMONELLA TYPHIMURIUM, Strain/Indicator: TA100, Metabolic Activation: RAT, LIVER, S-9, Method: LIQUID SUSPENSION) was “active; positive” and the mutagenic call (Test System: AMES SALMONELLA TYPHIMURIUM, Strain/Indicator: TA102, Metabolic Activation: NONE, Method: PREINCUBATION) was “inactive; negative”. The mutagenic call (Test System: AMES SALMONELLA TYPHIMURIUM, Strain/Indicator: TA102, Metabolic Activation: RAT LIVER S-9, PHENOBARBITAL AND BETA-NAPHTHOFLAVONE, Method: PREINCUBATION) was “inactive; negative”, the mutagenic call (Test System: AMES SALMONELLA TYPHIMURIUM, Strain/Indicator: TA102, Metabolic Activation: RAT, LIVER, S-9, PHENOBARBITAL AND 5,6-BENZOFLAVONE, Method: STANDARD PLATE) was “inactive; negative” and the mutagenic call (Test System: AMES SALMONELLA TYPHIMURIUM, Strain/Indicator: TA104, Metabolic Activation: NONE, Method: PREINCUBATION) was “inactive; negative”. The mutagenic call (Test System: AMES SALMONELLA TYPHIMURIUM, Strain/Indicator: TA104, Metabolic Activation: RAT LIVER S-9, PHENOBARBITAL AND BETA-NAPHTHOFLAVONE, Method: PREINCUBATION) was “inactive; negative”, the mutagenic call (Test System: AMES SALMONELLA TYPHIMURIUM, Strain/Indicator: TA1535, Metabolic Activation: HAMSTER, LIVER, S-9, AROCLOR 1254 (10 OR 30%), Method: PREINCUBATION) was “inactive; negative” and the mutagenic call (Test System: AMES SALMONELLA TYPHIMURIUM, Strain/Indicator: TA1535, Metabolic Activation: NONE, Method: PREINCUBATION) was “inactive; negative”. The mutagenic call (Test System: AMES SALMONELLA TYPHIMURIUM, Strain/Indicator: TA1535, Metabolic Activation: RAT LIVER S-9, PHENOBARBITAL AND BETA-NAPHTHOFLAVONE, Method: PREINCUBATION) was “inactive; negative”, the mutagenic call (Test System: AMES SALMONELLA TYPHIMURIUM, Strain/Indicator: TA1535, Metabolic Activation: RAT, LIVER, S-9, AROCLOR 1254 (10 OR 30%), Method: PREINCUBATION) was “inactive; negative” and the mutagenic call (Test System: AMES SALMONELLA TYPHIMURIUM, Strain/Indicator: TA1537, Metabolic Activation: HAMSTER, LIVER, S-9, AROCLOR 1254 (10 OR 30%), Method: PREINCUBATION) was “inactive; negative”. For the same compound, the mutagenic call (Test System: AMES SALMONELLA TYPHIMURIUM, Strain/Indicator: TA1537, Metabolic Activation: NONE, Method: PREINCUBATION) was “inactive; negative”, the mutagenic call (Test System: AMES SALMONELLA TYPHIMURIUM, Strain/Indicator: TA1537, Metabolic Activation: RAT LIVER S-9, PHENOBARBITAL AND BETA-NAPHTHOFLAVONE, Method: PREINCUBATION) was “inactive; negative” and the mutagenic call (Test System: AMES SALMONELLA TYPHIMURIUM, Strain/Indicator: TA1537, Metabolic Activation: RAT, LIVER, S-9, AROCLOR 1254 (10 OR 30%), Method: PREINCUBATION) was “inactive; negative”. The mutagenic call (Test System: AMES SALMONELLA TYPHIMURIUM, Strain/Indicator: TA2638, Metabolic Activation: RAT, LIVER, S-9, PHENOBARBITAL AND 5,6-BENZOFLAVONE, Method: STANDARD PLATE) was “inactive; negative”, the mutagenic call (Test System: E. COLI, Strain/Indicator: WP2 (PKM101), Metabolic Activation: RAT, LIVER, S-9, PHENOBARBITAL AND 5,6-BENZOFLAVONE, Method: STANDARD PLATE) was “inactive; negative” and the mutagenic call (Test System: E. COLI, Strain/Indicator: WP2 UVRA (PKM101), Metabolic Activation: RAT, LIVER, S-9, PHENOBARBITAL AND 5,6-BENZOFLAVONE, Method: STANDARD PLATE) was “inactive; negative”. For the same compound, the mutagenic call (Test System: E.COLI, Strain/Indicator: WP2UVRA/PKM101, Metabolic Activation: NONE, Method: PREINCUBATION) was “inactive; negative”, the mutagenic call (Test System: E.COLI, Strain/Indicator: WP2UVRA/PKM101, Metabolic Activation: RAT LIVER S-9, PHENOBARBITAL AND BETA-NAPHTHOFLAVONE, Method: PREINCUBATION) was “active; positive” and the mutagenic call (Test System: E.COLI, Strain/Indicator: WP2UVRA, Metabolic Activation: NONE, Method: PREINCUBATION) was “inactive; negative”. For the same compound, the mutagenic call (Test System: E.COLI, Strain/Indicator: WP2UVRA, Metabolic Activation: RAT LIVER S-9, PHENOBARBITAL AND BETA-NAPHTHOFLAVONE, Method: PREINCUBATION) was “inactive; negative”.

For `OCc1ccc(Cl)cc1`, the mutagenic call [1] was “inactive; negative”.

In the case of `COC(=O)c1cc2c([nH]c3ccccc32)c(-c2ccc3c(n2)C(=O)C=CC3=O)n1`, the mutagenic call [1] is reported as “active; positive” and the mutagenic call (Test System: AMES SALMONELLA TYPHIMURIUM, Strain/Indicator: TA100, Metabolic Activation: RAT, LIVER, S-9, PCB, Method: STANDARD PLATE) is reported as “active; positive”.
